Data set [1] is described as follows: Ratio of k2 to K for ionophoric activity across egg-yolk L-alpha-phosphatidylcholine-based liposomal membranes (unknown origin).
Data set [2] in a line: Ionophoric activity across egg-yolk L-alpha-phosphatidylcholine-based liposomal membranes (unknown origin) assessed as change in fluorescence intensity at 3 mol % by pyranine dye-based method in presence of chloride ions in internal and sulfate ions in external vesicles. The class given is physicochemical. Particulars: artificial membrane; call rule not given here.
Data set [3] can be described thus: Ionophoric activity across egg-yolk L-alpha-phosphatidylcholine-based liposomal membranes (unknown origin) assessed as induction of pH discharge at internal pH 7 and external aqueous phase pH 8 by pyranine dye-based method. It counts as physicochemical. The conditions noted are these: artificial membrane.
Data set [4] is described as follows: Ionophoric activity across egg-yolk L-alpha-phosphatidylcholine-based liposomal membranes (unknown origin) assessed as induction of pH discharge at 0.5 to 3 mol % at internal pH 7 and external aqueous phase pH 8 by pyranine dye-based method. It counts as physicochemical. The conditions noted are these: artificial membrane.

`C[C@H](CCC(=O)NC(CCCCN)C(=O)Nc1ccc(NC(=O)C(CCCCN)NC(=O)CC[C@@H](C)[C@H]2CC[C@H]3[C@@H]4[C@H](O)C[C@@H]5C[C@H](O)CC[C@]5(C)[C@H]4C[C@H](O)[C@]23C)cc1)[C@H]1CC[C@H]2[C@@H]3[C@H](O)C[C@@H]4C[C@H](O)CC[C@]4(C)[C@H]3C[C@H](O)[C@]12C` (some centres not stated): in data set [1], the Ratio (10'-4/min.mol%'-4) came to 5.5. Moreover, the Activity result is on record as “Not Active” in data set [2] and “Active” in data set [4]. Further, the K in data set [3] is 1.81 ×10⁻² /min.
Turning to `CC(=O)NCCCCC(NC(=O)CC[C@@H](C)[C@H]1CC[C@H]2[C@@H]3[C@H](O)C[C@@H]4C[C@H](O)CC[C@]4(C)[C@H]3C[C@H](O)[C@]12C)C(=O)NCc1ccc(CNC(=O)C(CCCCNC(C)=O)NC(=O)CC[C@@H](C)[C@H]2CC[C@H]3[C@@H]4[C@H](O)C[C@@H]5C[C@H](O)CC[C@]5(C)[C@H]4C[C@H](O)[C@]23C)cc1` (some centres not stated), the Activity result in data set [2] is given as “Not Active”; in data set [4] it was “Active”.
For `C[C@H](CCC(=O)NC(CCCCN)C(=O)NCc1ccc(CNC(=O)C(CCCCN)NC(=O)CC[C@@H](C)[C@H]2CC[C@H]3[C@@H]4[C@H](O)C[C@@H]5C[C@H](O)CC[C@]5(C)[C@H]4C[C@H](O)[C@]23C)cc1)[C@H]1CC[C@H]2[C@@H]3[C@H](O)C[C@@H]4C[C@H](O)CC[C@]4(C)[C@H]3C[C@H](O)[C@]12C` (some centres not stated), the Ratio (10'-4/min.mol%'-4) in data set [1] is 5.2. In addition, the Activity entry is recorded as “Not Active” in data set [2] and “Active” in data set [4]. Besides, in data set [3], the K came out at 1.81 ×10⁻² /min.
As to `C[C@H](CCC(=O)NCc1ccc(CNC(=O)CC[C@@H](C)[C@H]2CC[C@H]3[C@@H]4[C@H](O)C[C@@H]5C[C@H](O)CC[C@]5(C)[C@H]4C[C@H](O)[C@]23C)cc1)[C@H]1CC[C@H]2[C@@H]3[C@H](O)C[C@@H]4C[C@H](O)CC[C@]4(C)[C@H]3C[C@H](O)[C@]12C`, the Ratio (10'-5/min.mol%'-4) in data set [1] was 9. The result in data set [4] was Active.
